# Experimental data: patent US20040014676A1, “SRC kinase inhibitors useful for treating osteoporosis” (priority 2001, published 2004)
# pIC50: −log10 of the molar value.
# Biological target: T1, Src kinase (Homo sapiens, UniProt P12931)
# T1 construct: purchased Upstate Bioteolnology (sic; Upstate Biotechnology); later HMR stock 27597-019E1 #14-117
# Experiment: Phosphorylation assay of Src kinase inhibitors (radiometric, 96 well filter plate)
# Type: biochemical
# Conditions: IC50, duplicates, tested in the range of 400-0.098 µM; 10 µM peptide substrate (FIYGAFKKKKNH2), 5 µM unlabeled ATP, room temperature 30 min
# Procedure, shortened: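 Radiometric filter-plate assay: Src kinase (1:100 dilution) was incubated with 10 μM peptide FIYGAFKKK-NH2, 5 μM unlabeled ATP and radiolabeled ATP for 30 min at room temperature. Reactions were stopped with 150 mM H3PO4, the peptide was captured on phosphocellulose and scintillation counted. Ki values were determined for some compounds.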
# T1 sequence (P12931 whole entry): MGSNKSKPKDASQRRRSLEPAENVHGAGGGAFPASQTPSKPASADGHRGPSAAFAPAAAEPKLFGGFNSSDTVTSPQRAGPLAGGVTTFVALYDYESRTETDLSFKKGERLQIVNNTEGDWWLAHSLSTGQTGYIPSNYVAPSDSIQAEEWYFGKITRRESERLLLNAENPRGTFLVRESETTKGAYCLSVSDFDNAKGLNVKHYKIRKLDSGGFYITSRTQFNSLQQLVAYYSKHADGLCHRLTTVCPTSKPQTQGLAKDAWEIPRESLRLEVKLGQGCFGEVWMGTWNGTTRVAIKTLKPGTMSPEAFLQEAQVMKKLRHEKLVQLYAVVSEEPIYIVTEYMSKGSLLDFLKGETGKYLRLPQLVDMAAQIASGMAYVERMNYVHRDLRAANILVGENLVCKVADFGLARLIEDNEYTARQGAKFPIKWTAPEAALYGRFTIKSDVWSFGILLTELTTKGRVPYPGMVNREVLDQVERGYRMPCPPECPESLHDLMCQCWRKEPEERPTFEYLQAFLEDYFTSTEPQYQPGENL
row,Compound,pIC50
1,"NC(=O)CNC(=O)c1cc2ccccc2cc1OCCNC(=O)[C@@H](N)Cc1ccc(O)cc1 [Example 92, 3-[2-[[[1-OXO-2(S)-AMINO-3-HYDROXY- PHENYL)]PROPYL]AMINO]ETHOXY]NAPHTHALENE-2-(N-]",5.47

# Same assay, conditions: duplicates, tested in the range of 400-0.098 µM; 10 µM peptide substrate (FIYGAFKKKKNH2), 5 µM unlabeled ATP, room temperature 30 min; read-out: IC50
row,Compound,pIC50
1,C[N+](C)(C)[C@@H](Cc1ccccc1)C(=O)NCCCCOc1cc2ccccc2cc1C(=O)NCC(N)=O [Example 69],4.85
2,"NC(=O)CC[C@H](N)C(=O)NCCCCOc1cc2ccccc2cc1C(=O)NCC(N)=O [Example 70, 3-[4-[[(1-OXO-2(S)-AMINO-4-AMINO- CARBONYL)BUTYL]AMINO]BUTOXY]- NAPHTHALENE-2-(N-ACETAMIDO)- CARBOXAMIDE]",3.43
3,NC(=O)CNC(=O)c1cc2ccccc2cc1OCCCCNC(=O)CNCc1cccc2ccccc12 [Example 71],5.22
4,"NC(=O)CNC(=O)c1cc2ccccc2cc1OCCCCNC(=O)[C@H](Cc1ccc(O)cc1)NC=O [Example 72, 3-[4-[[[1-OXO-2-(N-FORMYLAMINO)-3- (4-HYDROXYPHENYL)]PROPYL]- (S)AMINO]BUTOXY]-NAPHTHALENE- 2-(N-ACETAMIDO)CARBOXAMIDE]",5.22
5,"N=C(N)N[C@@H](Cc1ccc(O)cc1)C(=O)NCCCCOc1cc2ccccc2cc1C(=O)NCC(N)=O [Example 73, 3-[4-[[[(1-OXO-2-[(N-AMINOIMINO- METHYL)(S)AMINO]-3-(4-HYDROXY- PHENYL)]PROPYL]AMINO]BUTOXY]- NAPHTHALENE-2-(N-ACETAMIDO)- CARBOXAMIDE]",5.22
6,"NCC(=O)N[C@@H](Cc1ccc(O)cc1)C(=O)NCCCCOc1cc2ccccc2cc1C(=O)NCC(N)=O [Example 74, 3-[4-[[[(1-OXO-2-[(N-AMINOMETHYL- CARBONYL)(S)AMINO]3-(4-HYDROXY- PHENYL)]PROPYL]AMINO]BUTOXY]- NAPHTHALENE-2-(N-ACETAMIDO)- CARBOXAMIDE]",4.60
7,"NC(=O)CNC(=O)c1cc2ccccc2cc1OCCCCN1CCC[C@@H](c2ccccc2)[C@H](N)C1=O [Example 76, 3-[4-[(2-OXO-3(R)-AMINO-4(S)- PHENYL)HEXAMETHYLENEIMIN-1- YL]BUTOXY]-NAPHTHALENE-2-(N- ACETAMIDO)CARBOXAMIDE]",5.22
8,"NC(=O)CNC(=O)c1cc2ccccc2cc1OCCCCN1CCC[C@H](c2ccccc2)[C@H](N)C1=O [Example 77, 3-[4-[(2-OXO-3(R)-AMINO-4(R)- PHENYL)HEXAMETHYLENEIMIN-1- YL]BUTOXY]-NAPHTHALENE-2-(N- ACETAMIDO)CARBOXAMIDE]",5.22
9,"C[C@H](c1ccc(O)cc1)[C@H](N)C(=O)NCCCCOc1cc2ccccc2cc1C(=O)NCC(N)=O [Example 78, 3-[4-[[[(1-OXO-2-AMINO-3(R)-METHYL- 3-(4-HYDROXY)PHENYL)]PROPYL]- AMINO]BUTOXY]-NAPHTHALENE-2- (N-ACETAMIDO)CARBOXAMIDE]",5.22
10,"C[C@@H](c1ccc(O)cc1)[C@H](N)C(=O)NCCCCOc1cc2ccccc2cc1C(=O)NCC(N)=O [Example 79, 3-[4-[[[(1-OXO-2(S)-AMINO-3(R)- METHYL-3-(4-HYDROXYPHENYL)]- PROPYL]AMINO]BUTOXY]- NAPHTHALENE-2-(N-ACETAMIDO)- CARBOXAMIDE]",5.22
11,"NC(=O)CNC(=O)[C@@H](Cc1ccccc1)NCCCCCNC(=O)[C@H](N)Cc1csc2ccccc12 [Example 80, N-[((R)BENZYL)[(AMINO)(CARBONYL) (METHYL)(AMINO)(CARBONYL)]- METHYL]-5-[[N-[1-OXO-2- AMINO-3-(R)(BENZOTHIOPHEN-3-YL)]PROPYL]AMINO]PENTYLAMINE]",5.22
12,"NC(=O)CNC(=O)[C@H](Cc1ccccc1)NCCCCCNC(=O)[C@H](N)Cc1csc2ccccc12 [Example 81, N-[((S)BENZYL)[(AMINO)(CARBONYL)- (METHYL)(AMINO)(CARBONYL)]- METHYL]-5-[[N-[1-OXO-2-AMINO-3- (R)(BENZOTHIOPHEN-3- YL)]PROPYL]AMINO]PENTYLAMINE]",5.22
13,"NC(=O)CNC(=O)[C@@H](Cc1cccc2ccccc12)NCCCCCNC(=O)[C@H](N)Cc1csc2ccccc12 [Example 82, N-[((R)NAPHTH-1-YL)[(AMINO)- (CARBONYL)(METHYL)(AMINO)- (CARBONYL)]METHYL]-5-[N-[[N-[1- OXO-2-AMINO-3-(R)(BENZOTHIOPHEN- 3-YL)]PROPYL]AMINO]PENTYLAMINE]",5.22
14,"NC(=O)CNC(=O)c1cc2ccccc2cc1C(=O)NCCCNC(=O)[C@@H](N)Cc1ccc(O)cc1 [Example 89, 3-[[[3-[[[1-OXO-2(S)-AMINO-3- HYDROXYPHENYL)]PROPYL]AMINO]- PROPYL]AMINO]CARBONYL]- NAPHTHALENE-2-ACETAMIDO)- CARBOXAMID]",3.60
15,"NC(=O)CNC(=O)c1cc2ccccc2cc1NC(=O)CCCNC(=O)[C@@H](N)Cc1ccc(O)cc1 [Example 90, 3-[[[3-[[[1-OXO-2(S)-AMINO-3- HYDROXYPHENYL)]PROPYL]AMINO]- PROPYL]CARBONYL]AMINO]- NAPHTHALENE-2-ACETAMIDO)- CARBOXAMID]",3.68
16,"NC(=O)CNC(=O)c1cc2ccccc2cc1OCCCNC(=O)[C@@H](N)Cc1ccc(O)cc1 [Example 93, 3-[5-[[[1-OXO-2(S)-AMINO-3-(4- HYDROXYPHENYL)]PROPYL]AMINO]- PROPYLOXY]NAPHTHALENE-2-(N- ACETAMIDO)CARBOXAMIDE]",4.35
17,"NC(=O)CNC(=O)c1cc2ccccc2cc1OCCCCCNC(=O)[C@@H](N)Cc1ccc(O)cc1 [Example 94, 3-[5-[[[1-OXO-2(S)-AMINO-3-(4- HYDROXYPHENYL)]PROPYL]AMINO]- PENTOXY]NAPHTHALENE-2-(N- ACETAMIDO)CARBOXAMIDE]",5.18
18,"NC(=O)CNC(=O)c1cc2ccccc2cc1OCCCCCCNC(=O)[C@@H](N)Cc1ccc(O)cc1 [Example 95, 3-[6-[[[1-OXO-2(S)-AMINO-3-(4- HYDROXYPHENYL)]PROPYL]AMINO]- HEXOXY]NAPHTHALENE-2-(N- ACETAMIDO)CARBOXAMIDE]",5.15
19,"NC(=O)CNC(=O)c1cc2ccccc2cc1OCc1cccc(NC(=O)[C@@H](N)Cc2ccc(O)cc2)c1 [Example 96, 3-[3-[[[1-OXO-2(S)-AMINO-3-(4- HYDROXYPHENYL)]PROPYL]AMINO]- BENZYLOXY]NAPHTHALENE-2-(N- ACETAMIDO)CARBOXAMIDE]",5.15
20,"NC(=O)CNC(=O)c1cc2ccccc2cc1OCCCC(NC(=O)[C@H](N)Cc1csc2ccccc12)C(=O)O (stereo partly drawn) [Example 97, 3-[[4-[[1-OXO-2(S)-AMINO-3-(BENZO- THIOPHEN-3-YL)]PROPYL]AMINO][4- CARBOXY]BUTOXY]NAPHTHALENE-2- (N-ACETAMIDO)CARBOXAMIDE]",4.59
21,"C=CCOC(=O)C(CCCOc1cc2ccccc2cc1C(=O)NCC(N)=O)NC(=O)[C@H](N)Cc1csc2ccccc12 (stereo partly drawn) [Example 98, 3-[[4-[[1-OXO-2(S)-AMINO-3-(BENZO- THIOPHEN-3-YL)]PROPYL]AMINO][4- ACRYLOXYCARBOXY]BUTOXY]NAPHTHALENE-2-(N-ACETAMIDO)- CARBOXAMIDE]",5.60
22,"N[C@@H](Cc1ccc(O)cc1)C(=O)NCCCCOc1cc2ccccc2cc1C(=O)NCC(=O)NCCCO [Example 99, 3-[[4-[[1-OXO-2(S)-AMINO-3-(4- HYDROXYPHENYL)]PROPYL]AMINO]- BUTOXY]NAPHTHALENE-2-[N-[[[[3- HYDROXYPROPYL]AMINO]- CARBONYL]METHYL]]CARBOXAMIDE]",6.31
23,"N[C@@H](Cc1ccc(O)cc1)C(=O)NCCCCOc1cc2ccccc2cc1C(=O)NCCO [Example 101, 3-[[4-[[1-OXO-2(S)-AMINO-3-(4- HYDROXYPHENYL)]PROPYL]AMINO]- BUTOXY]NAPHTHALENE-2-[N- (2-HYDROXYETHYL)]CARBOXAMIDE]",4.82
24,NC(=O)CCNC(=O)c1cc2ccccc2cc1OCCCCNC(=O)[C@@H](N)Cc1ccc(O)cc1 [Example 102],4.28
25,"NC(=O)CNC(=O)c1cc2cc(Br)ccc2c(Br)c1OCCCCNC(=O)[C@@H](N)Cc1ccc(O)cc1 [Example 105, 1,6-DIBROMO-2-[[4-[[1-OXO-2(S)- AMINO-3-(4-HYDROXYPHENYL)]- PROPYL]AMINO]BUTOXY]- NAPHTHALENE-3-(N-ACETAMIDO)- CARBOXAMIDE]",4.70
26,"COc1ccc2cc(OCCCCNC(=O)[C@@H](N)Cc3ccc(O)cc3)c(C(=O)NCC(N)=O)cc2c1 [Example 106, 3-[[4-[[2(S)-AMINO-3-(4-HYDROXY- PHENYL)-1-OXOPROPYL]AMINO]- BUTOXY]-7-METHOXY- NAPHTHALENE-2-[N-ACETAMIDO]- CARBOXAMIDE]",5.60
27,"N[C@@H](Cc1ccc(O)cc1)C(=O)NCCCCOc1ccc2ccccc2c1C(=O)NCC(=O)NCCCO [Example 117, 2-[[4-[[1-OXO-2(S)-AMINO-3-(4- HYDROXYPHENYL)]PROPYL]AMINO]BUTOXY]NAPHTHALENE-1-[N-[[(3- HYDROXYPROPYLAMINO)- CARBONYL]METHYL]]CARBOXAMIDE]",4.33
28,"NC(=O)CNC(=O)c1cc2ccccc2cc1OCc1ccc(N)cc1 [Example 119, 2-[4-AMINOBENZYLOXY]- NAPHTHALENE-3-[N-ACETAMIDO]- CARBOXAMIDE]",4.60
29,"CNC(=O)C(Cc1ccc(C#N)cc1)C(=O)NCCCCOc1cc2ccccc2cc1C(=O)NCC(N)=O (stereo not shown) [Example 124, N-(4-{3-[N-(carbamoylmethyl)carbamoyl](2-naphthyloxy)}butyl)-2RS-[(4-cyanophenyl)methyl]-N′-methylpropane-1,3-diamide]",5.22
30,"NC(=O)CNC(=O)c1cc2ccccc2cc1/N=C(/OCCCCNC(=O)C(N)Cc1ccc(O)cc1)C(F)(F)F (stereo not shown) [Example 127, 3-[[1-TRIFLUOROMETHYL][1-[4-[[[1- OXO-2-AMINO-3-HYDROXYPHENYL)]- PROPYL]AMINO]BUTOXY]]- METHYLENIMINO]-NAPHTHALENE-2- [N-ACETAMIDO]CARBOXAMIDE]",4.72
